Measurements as given in ChEMBL document CHEMBL1135041, “Synthesis and first biological evaluation of 1-aza-9-oxafluorenes as novel lead structures for the development of small-sized cytostatics” (2002).

Legend:
Format in all cases: functional
Conditions in all cases: Homo sapiens
[1] = test system: SNB-75; experiment: Growth inhibition against SNB-75 (CNS cancer) cell line using SRB protein cytotoxicity assay
[2] = test system: NCI/ADR-RES; experiment: Growth inhibition against NCI/ADR-RES (breast cancer) cell line using SRB protein cytotoxicity assay
[3] = test system: IGROV-1; experiment: Growth inhibition against IGROVI (ovarian cancer) cell line using SRB protein cytotoxicity assay
[4] = test system: SF-268; experiment: Growth inhibition against SF-268 cancer cell line using SRB protein cytotoxicity assay
[5] = test system: KM12; experiment: Growth inhibition against KM12 (colon cancer) cancer cell line using SRB protein cytotoxicity assay

| Structure (SMILES) | GI50 [1] [µM] | GI50 [2] [µM] | GI50 [3] [µM] | GI50 [4] [µM] | GI50 [5] [µM] |
| --- | --- | --- | --- | --- | --- |
| CCOC(=O)c1cnc2oc3ccc(O)cc3c2c1-c1ccccc1 | 16.5 | 4.7 | 2.5 | 29.7 | 5.1 |
| CC(=O)c1cnc2oc3ccc(O)cc3c2c1-c1ccccc1 | 2.6 | 19.6 | 5 | 27.7 | 40.8 |
| CCOC(=O)c1cnc2oc3ccc(O)cc3c2c1C | 26 | 41 | 86 | 69.9 | 70.3 |
| CC(=O)c1cnc2oc3ccc(O)cc3c2c1C |  |  |  | > 100 |  |
